Measured values taken from article PMC13198257, “An aerosolized dual-action autotaxin inhibitor-PPARγ agonist for the treatment of pulmonary fibrosis” (Cell Reports Medicine, 2026).

System: lung gene expression
Experiment: RNA sequencing of lung tissue (BLM/EL244 vs BLM)
Type: in vivo, mouse
Settings: lung tissue of BLM-treated mice, BLM/EL244 vs BLM
Procedure: RNA quality was assessed using an Agilent TapeStation 4150 with the High Sensitivity […] ScreenTape (Agilent), according to the manufacturer’s protocols. For library preparation, the QuantSeq 3’mRNA-Seq Library Prep Kit (Lexogen) was used according to manufacturer’s instructions. Briefly, 500 ng of RNA from each sample was used for first-strand synthesis, followed by RNA template removal, and second-strand synthesis initiated by random primers. In-line barcodes were introduced at this step, and this was followed by magnetic bead-based purification. The resulting libraries were amplified for 15 cycles and re-purified, with quantity and quality assessed on a Qubit 4 Fluorometer with the Invitrogen Qubit dsDNA HS Assay and an Agilent Tapestation 4150 with the High Sensitivity D1000 assay kit, respectively. The quantified libraries were pooled equimolarly; 50ng of total library mix was used for Adapter Conversion PCR Amplification using the Universal Library Conversion Kit (App-A), Version: V1.0 (MGI Tech Co., Ltd.), according to the manufacturer’s instructions.
The quantity and quality of the purified adapter conversion PCR (AC-PCR) product were evaluated on a Qubit 4 Fluorometer with the Invitrogen Qubit dsDNA HS Assay and on an Agilent Tapestation 4150 with the High Sensitivity D1000 assay kit, respectively. This was followed by DNA denaturation, Single-Strand Circularisation, Enzymatic Digestion, Enzymatic Digestion Product Cleanup and Quality Control steps on 1 pmol of AC-PCR product, according to the Universal Library Conversion Kit (App-A) User Manual (Version: A3).
Finally, 60 fmol of ssCirDNA were used for DNB preparation and sequencing on a DNBSEQ-G400 platform at the BSRC Alexander Fleming Genomics Facility, using a G400 App-A FCS SE100 High-throughput Sequencing Set (MGI Tech Co., Ltd.), according to the manufacturer’s instructions.
Alignment of the FASTQ files was performed against the mouse genome build mm10 using a custom Bash script.[143] Read counting on the 3′ UTRs and differential expression analysis were conducted using the metaseqR2 bioconductor package.[144] Genes corresponding to the following biotypes were excluded: polymorphic_pseudogene, processed_transcript, pseudogene, IG_V_pseudogene, misc_RNA, IG_C_gene, IG_J_gene, IG_D_gene, IG_LV_gene, TR_V_gene, TR_V_pseudogene, TEC, and processed_pseudogene. Gene counts were normalized with DESEQ[145] through metaseqR2. Genes with more than 10 counts in at least 50% of the samples were kept for further processing. For differential expression analysis, the PANDORA algorithm[146] was used to estimate a meta p-value integrating the results from the DESEQ, DESEQ2,[147] edgeR,[148] limma,[149] NBPSeq,[150] and NOISeq[151] algorithms. All additional parameters were set to default values.
Pathway enrichment analysis was performed for the Gene Ontology Biological process (BP) and Molecular Function (MF) terms through GeneCodis 4.[152] The volcano plots, scatterplots, Venn diagrams, and dot plots were generated using the ggplot2 Bioconductor package.

## O=C1NC(=O)C(Cc2ccc(OCCC3CCN(C(=O)OCc4cc(Cl)cc(Cl)c4)CC3)cc2)S1 (centres unmarked) [EL244, 3,5-dichlorobenzyl 4-(2-(4-((2,4-dioxothiazolidin-5-yl)methyl)phenoxy)ethyl)piperidine-1-carboxylate]
  Ces2g log2 nFC: 0.83
  Ces2g nFC: 1.78
  Cfap43 log2 nFC: 0.88
  Cfap43 nFC: 1.84
  Cfap100 log2 nFC: 0.89
  Cfap100 nFC: 1.85
  Cfap206 log2 nFC: 0.77
  Cfap206 nFC: 1.70
  Cftr log2 nFC: 0.96
  Cftr nFC: 1.95
  Cldn5 log2 nFC: 0.97
  Cldn5 nFC: 1.96
  Cpm log2 nFC: 0.68
  Cpm nFC: 1.60
  Crebl2 log2 nFC: 0.79
  Crebl2 nFC: 1.73
  Crem log2 nFC: 0.68
  Crem nFC: 1.60
  Crispld2 log2 nFC: 0.80
  Crispld2 nFC: 1.74
  Cry2 log2 nFC: 0.70
  Cry2 nFC: 1.62
  Csrnp1 log2 nFC: 0.83
  Csrnp1 nFC: 1.78
  Ctla2a log2 nFC: 0.72
  Ctla2a nFC: 1.65
  Ctla2b log2 nFC: 0.96
  Ctla2b nFC: 1.94
  Cyp2d22 log2 nFC: 0.97
  Cyp2d22 nFC: 1.97
  Cyp2f2 log2 nFC: 0.79
  Cyp2f2 nFC: 1.72
  Dgkh log2 nFC: 0.84
  Dgkh nFC: 1.79
  Dnali1 log2 nFC: 0.73
  Dnali1 nFC: 1.66
  Dok4 log2 nFC: 0.74
  Dok4 nFC: 1.67
  Dpep1 log2 nFC: 0.71
  Dpep1 nFC: 1.63
  Dusp1 log2 nFC: 0.86
  Dusp1 nFC: 1.82
  Ednrb log2 nFC: 0.97
  Ednrb nFC: 1.96
  Elmod1 log2 nFC: 0.89
  Elmod1 nFC: 1.86
  Eng log2 nFC: 0.81
  Eng nFC: 1.76
  Errfi1 log2 nFC: 0.95
  Errfi1 nFC: 1.93
  Fabp3 log2 nFC: 0.98
  Fabp3 nFC: 1.97
  Fmo1 log2 nFC: 0.86
  Fmo1 nFC: 1.81
  Fmo2 log2 nFC: 1.00
  Fmo2 nFC: 2.00
  Fos log2 nFC: 1.02
  Fos nFC: 2.03
  Fxyd1 log2 nFC: 0.80
  Fxyd1 nFC: 1.75
  Fzd4 log2 nFC: 0.69
  Fzd4 nFC: 1.61
  Galnt15 log2 nFC: 0.89
  Galnt15 nFC: 1.85
  Gm26236 log2 nFC: 1.03
  Gm26236 nFC: 2.04
  Gm47291 log2 nFC: 0.98
  Gm47291 nFC: 1.98
  Gm49391 log2 nFC: 0.96
  Gm49391 nFC: 1.95
  Gnao1 log2 nFC: 0.85
  Gnao1 nFC: 1.80
  Gpm6a log2 nFC: 0.83
  Gpm6a nFC: 1.78
  Gpr155 log2 nFC: 0.76
  Gpr155 nFC: 1.69
  Gprasp1 log2 nFC: 0.72
  Gprasp1 nFC: 1.64
  Gpt log2 nFC: 0.73
  Gpt nFC: 1.66
  Gsn log2 nFC: 1.06
  Gsn nFC: 2.08
  Gstm1 log2 nFC: 0.75
  Gstm1 nFC: 1.68
  Hecw2 log2 nFC: 0.81
  Hecw2 nFC: 1.75
  Hlf log2 nFC: 0.89
  Hlf nFC: 1.86
  Igf1r log2 nFC: 0.70
  Igf1r nFC: 1.63
  Il6ra log2 nFC: 0.84
  Il6ra nFC: 1.79
  Iqca log2 nFC: 0.87
  Iqca nFC: 1.83
  Itga8 log2 nFC: 0.88
  Itga8 nFC: 1.85
  Itih4 log2 nFC: 0.88
  Itih4 nFC: 1.84
  Iyd log2 nFC: 1.04
  Iyd nFC: 2.05
  Jdp2 log2 nFC: 0.71
  Jdp2 nFC: 1.64
  Klf3 log2 nFC: 0.69
  Klf3 nFC: 1.62
  Klf4 log2 nFC: 0.72
  Klf4 nFC: 1.64
  Klf9 log2 nFC: 0.85
  Klf9 nFC: 1.80
  Klrd1 log2 nFC: 0.95
  Klrd1 nFC: 1.93
  Kndc1 log2 nFC: 1.05
  Kndc1 nFC: 2.07
  Krt23 log2 nFC: 0.69
  Krt23 nFC: 1.61
  Lncpint log2 nFC: 1.06
  Lncpint nFC: 2.08
  Lpin1 log2 nFC: 0.80
  Lpin1 nFC: 1.75
  Lrrc74b log2 nFC: 1.02
  Lrrc74b nFC: 2.03
  Ltbp4 log2 nFC: 0.81
  Ltbp4 nFC: 1.76
  Lyve1 log2 nFC: 0.96
  Lyve1 nFC: 1.94
  Map3k6 log2 nFC: 0.95
  Map3k6 nFC: 1.93
  Mapt log2 nFC: 0.89
  Mapt nFC: 1.85
  Mcf2l log2 nFC: 0.95
  Mcf2l nFC: 1.93
  Mettl7a1 log2 nFC: 0.80
  Mettl7a1 nFC: 1.75
  Mir29c log2 nFC: 0.89
  Mir29c nFC: 1.85
  Mir1668 log2 nFC: 0.75
  Mir1668 nFC: 1.69
  Mir6899 log2 nFC: 0.84
  Mir6899 nFC: 1.80
  Mtcl1 log2 nFC: 0.73
  Mtcl1 nFC: 1.66
  Ndrg2 log2 nFC: 0.88
  Ndrg2 nFC: 1.84
  Nek5 log2 nFC: 0.81
  Nek5 nFC: 1.76
  Nova2 log2 nFC: 0.90
  Nova2 nFC: 1.86
  Nr1d1 log2 nFC: 0.84
  Nr1d1 nFC: 1.79
  Nrgn log2 nFC: 1.04
  Nrgn nFC: 2.05
  Nrxn2 log2 nFC: 0.88
  Nrxn2 nFC: 1.84
  Ogn log2 nFC: 0.86
  Ogn nFC: 1.82
  Osgin1 log2 nFC: 0.74
  Osgin1 nFC: 1.68
  Pcolce2 log2 nFC: 0.98
  Pcolce2 nFC: 1.97
  Pcp4l1 log2 nFC: 0.75
  Pcp4l1 nFC: 1.68
  Phactr1 log2 nFC: 0.74
  Phactr1 nFC: 1.67
  Phf1 log2 nFC: 0.75
  Phf1 nFC: 1.68
  Pla2g1b log2 nFC: 0.79
  Pla2g1b nFC: 1.72
  Plxna2 log2 nFC: 0.78
  Plxna2 nFC: 1.72
  Ppargc1a log2 nFC: 0.86
  Ppargc1a nFC: 1.82
  Ppl log2 nFC: 0.87
  Ppl nFC: 1.83
  Prob1 log2 nFC: 0.76
  Prob1 nFC: 1.70
  Ptgfr log2 nFC: 0.93
  Ptgfr nFC: 1.90
  Pxdc1 log2 nFC: 0.83
  Pxdc1 nFC: 1.78
  Rapgef5 log2 nFC: 0.88
  Rapgef5 nFC: 1.84
  Rara log2 nFC: 0.73
  Rara nFC: 1.66
  Rgs9 log2 nFC: 1.01
  Rgs9 nFC: 2.02
  Rora log2 nFC: 0.80
  Rora nFC: 1.74
  S1pr4 log2 nFC: 0.94
  S1pr4 nFC: 1.91
  Scn3a log2 nFC: 0.75
  Scn3a nFC: 1.68
  Scube2 log2 nFC: 0.74
  Scube2 nFC: 1.68
  Sec14l3 log2 nFC: 0.69
  Sec14l3 nFC: 1.62
  Sec14l4 log2 nFC: 0.77
  Sec14l4 nFC: 1.70
  Sell log2 nFC: 1.03
  Sell nFC: 2.04
  Sema3g log2 nFC: 0.78
  Sema3g nFC: 1.72
  Sftpa1 log2 nFC: 0.70
  Sftpa1 nFC: 1.62
  Sgip1 log2 nFC: 0.90
  Sgip1 nFC: 1.87
  Sgms1 log2 nFC: 0.71
  Sgms1 nFC: 1.63
  Slc2a4rg-ps log2 nFC: 0.85
  Slc2a4rg-ps nFC: 1.80
  Slc7a10 log2 nFC: 0.97
  Slc7a10 nFC: 1.96
  Slc16a11 log2 nFC: 0.79
  Slc16a11 nFC: 1.73
  Slc43a3 log2 nFC: 0.73
  Slc43a3 nFC: 1.66
  Slit3 log2 nFC: 1.02
  Slit3 nFC: 2.03
  Snora21 log2 nFC: 0.75
  Snora21 nFC: 1.68
  Sntb1 log2 nFC: 0.72
  Sntb1 nFC: 1.64
  Sorbs1 log2 nFC: 0.70
  Sorbs1 nFC: 1.62
  Sorbs3 log2 nFC: 0.80
  Sorbs3 nFC: 1.74
  Srcin1 log2 nFC: 0.91
  Srcin1 nFC: 1.87
  Stard8 log2 nFC: 0.69
  Stard8 nFC: 1.61
  Syne1 log2 nFC: 0.70
  Syne1 nFC: 1.62
